Experimental data: patent publication US6034086A, “Trifluoromethylquinolinecarboxylic acid derivative” (priority 1994, dated 2000)
≈ marks a conversion by molar mass, not a printed value. Read-outs that look alike come from different tables or passages of the source.

Assays:
HIV [1] = conditions: AIDS 4, 1283 (1990) for DR-3355; WO 90/13542 for the others; cited from earlier work
HIV [2] = test: cellular disorder-suppressing activity (anti-HIV activity) in HIV-infected MT-4 cells, MTT, method of R. Pauwel et al.; format: cell-based; conditions: for EC50: Human immunodeficiency virus 1, MT4, 120 h, HIV-infected MT-4 cells, 37° C., 5 days, 5% carbon dioxide, MTT, read-out: EC50 (50% cellular disorder-suppressing activity against the HIV-infected cells)
Description: That is, MT-4 cells were centrifuged (1000×g, 5 minutes), and a cell-floating solution in which the resulting cellular sediments were suspended in a RPMI-1640 medium containing no serum was inoculated with HIV. The mixture was cultured at 37° C. for 1 hour and then added to a RPMI-1640 medium to which 10% bovine fetal serum was added (hereinafter referred to as the serum medium), and the mixture was washed and centrifuged (1000×g, 5 minutes). The HIV-infected cells thus obtained and HIV-non-infected cells were suspended in the serum media in an amount of 4×10^5 /ml, respectively, and each 100 μl of the suspensions were apportioned to the respective wells of a multiwell with 96 wells for tissue culture. Each 100 μl of the compounds which had been previously diluted with the serum medium stepwisely were apportioned to these respective wells, and then the mixtures were left to stand and cultured at 37° C. for 5 days in the presence of 5% carbon dioxide. In the same manner, the HIV-infected cells and the HIV-non-infected cells to which the compound was not added were cultured. […] It was confirmed that no mycoplasma was contained in the cell solution and the virus-inoculated solution.
The cellular disorder-suppressing activity against the HIV-non-infected cells to which the compound was not added was defined as 100%, and the cellular disorder-suppressing activity against the HIV-infected cells to which the compound was not added was defined as 0%.

[3] = method of R. Pauwel et al., statement in background section

O=C(O)c1cn(C2CC2)c2cc(N3CCNCC3)c(F)cc2c1=O [Ciprofloxacin]
anti-HIV activity reported in literature, in words (HIV [1]): anti-HIV activities | cellular disorder-suppressing activity to HIV-infected cells (anti-HIV activity), in words (HIV [2]): no anti-HIV activity was also recognized

C[C@H]1COc2c(N3CCN(C)CC3)c(F)cc3c(=O)c(C(=O)O)cn1c23 [DR-3355]
anti-HIV activity reported in literature, in words (HIV [1]): anti-HIV activity | cellular disorder-suppressing activity to HIV-infected cells (anti-HIV activity), in words (HIV [2]; [3]): no anti-HIV activity was recognized

CN1CCN(c2cc3c(cc2F)c(=O)c(C(=O)O)cn3-c2ccc(F)cc2)CC1 [Difloxacin]
anti-HIV activity reported in literature, in words (HIV [1]): anti-HIV activities | cellular disorder-suppressing activity to HIV-infected cells (anti-HIV activity), in words (HIV [2]; [3]): no anti-HIV activity was also recognized

CCn1cc(C(=O)O)c(=O)c2cc(F)c(N3CCNCC3)nc21 [Enoxacin]
anti-HIV activity reported in literature, in words (HIV [1]): anti-HIV activities | cellular disorder-suppressing activity to HIV-infected cells (anti-HIV activity), in words (HIV [2]; [3]): no anti-HIV activity was also recognized

O=C(O)c1cn(C2CC2)c2c(C(F)(F)F)c(N3CCN(c4ccccn4)CC3)c(F)cc2c1=O [Example 2, 1-cyclopropyl-6-fluoro-8-trifluoromethyl-1,4-dihydro-4-oxo-7-[4-(2-pyridyl)piperazin-1-yl]quinoline-3-carboxylic acid]
EC50 (HIV [2]): 0.02 µg/mL (≈ 0.042 µM)

Cn1cc(C(=O)O)c(=O)c2cc(F)c(N3CCN(c4ncccn4)CC3)c(C(F)(F)F)c21 [Example 8, 6-fluoro-8-trifluoromethyl-1,4-dihydro-4-oxo-1-methyl-7-[4-(2-pyrimidinyl)piperazin-1-yl]quinoline-3-carboxylic acid]
EC50 (HIV [2]): 0.02 µg/mL (≈ 0.0443 µM)

Cn1cc(C(=O)O)c(=O)c2cc(F)c(N3CCN(c4ccccn4)CC3)c(C(F)(F)F)c21 [Example 9, 6-fluoro-8-trifluoromethyl-1,4-dihydro-4-oxo-1-methyl-7-[4-(2-pyridyl)piperazin-1-yl]quinoline-3-carboxylic acid]
EC50 (HIV [2]): 0.005 µg/mL (≈ 0.0111 µM)

CCn1cc(C(=O)O)c(=O)c2cc(F)c(N3CCN(c4ccccn4)CC3)c(C(F)(F)F)c21 [Example 11, 1-ethyl-6-fluoro-8-trifluoromethyl-1,4-dihydro-4-oxo-7-[4-(2-pyridyl)piperazin-1-yl]quinoline-3-carboxylic acid]
EC50 (HIV [2]): 0.01 µg/mL (≈ 0.0215 µM)

Cn1cc(C(=O)O)c(=O)c2cc(F)c(N3CCN(c4ccc(F)cc4)CC3)c(C(F)(F)F)c21 [Example 22, 6-fluoro-8-trifluoromethyl-1,4-dihydro-4-oxo-1-methyl-7-[4-(4-fluorophenyl)piperazin-1-yl]quinoline-3-carboxylic acid]
EC50 (HIV [2]): 0.0096 µg/mL (≈ 0.0205 µM)

Cn1cc(C(=O)O)c(=O)c2cc(F)c(N3CCN(c4nccs4)CC3)c(C(F)(F)F)c21 [Example 23, 6-fluoro-8-trifluoromethyl-1,4-dihydro-4-oxo-1-methyl-7-[4-(2-thiazolyl)piperazin-1-yl]quinoline-3-carboxylic acid]
EC50 (HIV [2]): 0.011 µg/mL (≈ 0.0241 µM)

CCn1cc(C(=O)O)c(=O)c2cc(F)c(N3CCNC(C)C3)c(F)c21 (centres unmarked) [Lomefloxacin]
anti-HIV activity reported in literature, in words (HIV [1]): anti-HIV activities | cellular disorder-suppressing activity to HIV-infected cells (anti-HIV activity), in words (HIV [2]; [3]): no anti-HIV activity was also recognized

CCn1cc(C(=O)O)c(=O)c2cc(F)c(N3CCNCC3)cc21 [Norfloxacin]
anti-HIV activity reported in literature, in words (HIV [1]): anti-HIV activities | cellular disorder-suppressing activity to HIV-infected cells (anti-HIV activity), in words (HIV [2]; [3]): no anti-HIV activity was also recognized

NC1CCN(c2nc3c(cc2F)c(=O)c(C(=O)O)cn3-c2ccc(F)cc2F)C1 (centres unmarked) [Tosufloxacin]
anti-HIV activity reported in literature, in words (HIV [1]): anti-HIV activities | cellular disorder-suppressing activity to HIV-infected cells (anti-HIV activity), in words (HIV [2]; [3]): no anti-HIV activity was also recognized
